Reference: patent publication US8394829B2, “Bi-functional quinoline analogs” (Gilead Sciences, Inc., priority 2010, dated 2013)

Key:
Human recombinant PDE4B2 = target: T1, Human recombinant PDE4B2 (Homo sapiens, UniProt Q07343); assay: Inhibition of PDE4B4 enzyme activity (PDE Glo Assay); type: biochemical; settings: human recombinant PDE4B2, 50 nM cAMP; read-out: PDE4 IC50
T1 construct: purchased BPS Bioscience
Experimental: Biological Examples Inhibition of PDE4B4 Enzyme Activity
The inhibitory activity of test compounds were determined using the PDE Glo Assay (Promega, V1361). The PDE-Glo Reaction Buffer was prepared (1 mL 5× buffer+4 mL water) and 150 nM solution of test compound dissolved in the Reaction Buffer, followed by 1:3 serial dilutions into Reaction Buffer. […] Human recombinant PDE4B2 (BPS Bioscience) was added to test compound in Reaction Buffer at a concentration of 0.12 nM per reaction. The enzyme and test compound were pre-incubated together at rt for 10 min. 50 nM of the enzyme substrate cAMP was then added to initiate the enzyme reaction, with the reaction terminated after one hour. Termination Buffer (1 mL 5× termination buffer+3.9 mL water+100 μL of 100 mM IBMX (ICN Chemicals, in DMSO)), was added to each reaction well to terminate the reaction. Detection Buffer (1 mL 5×PDE-Glo Detection buffer+3.96 mL water+40 μL PKA (supplied in kit)) was added to the cAMP-enzyme-test compound mix and this secondary reaction proceeded for 20 minutes at rt. An equal volume of Kinase Glo Reagent was then added to the reaction mixture and after 10 min luminescence was measured using a luminometer (EnVision, 0.1 sec read for luminescence). Luminescence values were […] related to levels of cAMP in the reaction mixture. Data were plotted as relative light units (RLU) versus test compound concentration and the IC50 determined using GraphPad Prism 5.0, using a nonlinear curve fit in a single-site binding model.
IC50 determinations for the compounds presented above are seen in the first column of Table 1 (PDE4IC50).

[1] = target: T2, human recombinant beta-2 adrenoreceptors (Homo sapiens, UniProt P07550); assay: Functional agonism of human recombinant beta-2 adrenoreceptors expressed in CHO cells (cAMP HTRF); type: cell-based; settings: CHO cells expressing human beta-2 adrenoreceptors, cAMP elevation, 30 min
T2 construct: expressed in transfected cells; host or cells: CHO cells
T2 sequence (P07550 whole entry): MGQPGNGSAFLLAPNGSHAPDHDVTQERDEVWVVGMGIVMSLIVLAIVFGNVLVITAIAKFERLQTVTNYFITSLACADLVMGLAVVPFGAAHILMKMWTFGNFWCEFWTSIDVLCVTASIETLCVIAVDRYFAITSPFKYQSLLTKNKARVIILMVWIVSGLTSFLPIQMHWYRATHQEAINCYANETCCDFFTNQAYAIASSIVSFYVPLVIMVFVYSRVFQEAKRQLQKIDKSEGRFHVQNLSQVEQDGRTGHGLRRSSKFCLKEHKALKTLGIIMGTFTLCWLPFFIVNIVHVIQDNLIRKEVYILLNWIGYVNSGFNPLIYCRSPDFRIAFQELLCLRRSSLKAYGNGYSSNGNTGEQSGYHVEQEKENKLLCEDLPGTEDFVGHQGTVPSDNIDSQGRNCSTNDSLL
Experimental: Functional Agonism of Human Recombinant Beta-2 Adrenoreceptors Expressed in Chinese Hamster Oocytes (CHO)
Test compounds were incubated for 30 min with CHO cells expressing the human recombinant beta-2 adrenoreceptors. Agonism of the receptor was measured by the elevation of intracellular cyclic-AMP over control levels detected using a homogeneous time resolved fluorescence (HTRF) format. Compounds were determined to be “full” or “partial” agonists based on the maximum level of cAMP accumulated compared to the control compound isoproterenol which is a full agonist in this assay system. Concentration response curves were generated for test compounds and the EC50 (molar concentration of the agonist which produced 50% of the maximal response for that compound) was determined. These assays were performed using a protocol based on the original description of the assay by Baker, J. G. (2005) Brit. J. Pharmacol.; 144:317-322.
EC50 determinations for the compounds presented above are seen in the third column of Table 1 (Beta 2 EC50).

[2] = system: LPS-induced TNF-α release from human peripheral blood mononuclear cells (PBMC); assay: Inhibition of LPS-induced TNF-α release from human PBMC; type: cell-based; settings: LPS 0.4 ng/mL, 6 h, presence or absence of ICI-118551 not given
Text: Inhibition of Lipopolysaccharide (LPS)-Induced Tumour Necrosis Factor Alpha (TNF-α) Release from Human Peripheral Blood Mononuclear Cells (PBMC)
Human whole blood was drawn from donors and cell purification initiated within two hours. Peripheral blood mononuclear cells (PBMC) were purified using a standard Ficoll gradient purification technique and aliquoted at a concentration of 100,000 cells/well in 96 well plates. Beta-2 adrenoreceptor agonists are also anti-inflammatory for some immune cells expressing the receptor and in this assay they can inhibit tumor necrosis factor-alpha (TNF-α) production. Therefore PBMC were pre-incubated for 30 min in the presence of the beta-2 adrenoreceptor antagonist ICI-118551 [3-(isopropylamino)-1-[(7-methyl-4-indanyl)oxy]butan-2-ol] (10 μM) to determine the PDE4 directed activity of test compounds, and in the absence of ICI-118551 for the combined PDE4 and beta-2 receptor directed activity. Test compounds were dissolved in DMSO and diluted in buffer (final DMSO concentration of 0.1% v/v) and were then added to the cell suspensions and pre-incubated for a further 1 h at 37° C. LPS solution was then added (0.4 ng/mL) and the cells incubated for a further 6 h. At the end of the incubation period the cell supernatants were collected and TNF-α was measured using a Procarta Cytokine Assay Kit (Affymetrix, Santa Clara, Calif.) according to the manufacturers' instructions. Data were analyzed using MiraiBio Masterplex QT v4.0 software (MasterPlex Version 1.0.1.18 Copyright 2008, Hitachi Software Engineering Co., Ltd) and used to extrapolate Mean Fluorescence Intensity (MFI) into concentrations of TNF-α and mean values from replicate wells were determined. Inhibition curves were plotted using a nonlinear curve fit employing a single-site binding model to determine the IC50 value for each test compound in the presence or absence of ICI-118551 using GraphPad Prism 5 for Windows, version 5.02 (GraphPad Software, San Diego Calif.).
EC50 determinations for the compounds presented above are seen in the fourth column of Table 1 (PBMC TNF EC50).

[3] = target: T2, human recombinant beta-2 adrenoreceptors; assay: Beta-2 adrenoceptor binding assay ([3H](−)CGP-12177 displacement); settings: CHO cells expressing human beta-2 adrenoreceptors, [3H](−)CGP-12177 0.3 nM, 120 min
Experimental: Beta-2 Adrenoceptor Binding Assay
Test compounds were incubated for 120 min with Chinese hamster oocyte (CHO) cells expressing the human recombinant beta-2 adrenoreceptors. Binding of test compounds to the beta-2 adrenoreceptors was determined by measuring the displacement of the radiolabeled ligand [^3H](−)CGP-12177 (0.3 nM) from the receptor measured by a scintillation counting. Concentration response curves were generated for test compounds and the IC50 (molar concentration of the compound which produced 50% inhibition for the maximal response for that compound) was determined. These assays were performed using a protocol based on the original description of the assay by Joseph et al., (2004) Naun.-Sch. Arch. Pharm.; 369:525-532.
IC50 determinations for the compounds presented above are seen in the second column of Table 1 (Beta 2 IC50).

T1 sequence (Q07343 1-564 isoform Q07343-2): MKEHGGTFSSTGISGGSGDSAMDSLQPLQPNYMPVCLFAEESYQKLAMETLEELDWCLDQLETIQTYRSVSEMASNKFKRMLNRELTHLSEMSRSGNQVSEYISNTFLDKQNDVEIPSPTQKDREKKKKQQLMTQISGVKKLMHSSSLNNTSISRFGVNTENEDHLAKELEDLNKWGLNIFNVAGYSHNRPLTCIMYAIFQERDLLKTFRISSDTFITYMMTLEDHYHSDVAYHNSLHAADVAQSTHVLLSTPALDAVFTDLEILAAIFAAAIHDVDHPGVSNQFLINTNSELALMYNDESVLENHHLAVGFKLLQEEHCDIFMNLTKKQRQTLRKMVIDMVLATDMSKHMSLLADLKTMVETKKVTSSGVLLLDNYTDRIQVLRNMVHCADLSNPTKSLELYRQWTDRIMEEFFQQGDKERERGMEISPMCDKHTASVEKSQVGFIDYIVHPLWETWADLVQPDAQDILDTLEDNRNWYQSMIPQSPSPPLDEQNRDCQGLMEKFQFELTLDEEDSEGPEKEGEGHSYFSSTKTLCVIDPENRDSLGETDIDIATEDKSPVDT

Row | IC50 (Human recombinant PDE4B2) [nM] | EC50 [1] [nM] | IC50 [3] [nM] | Structure (SMILES) | EC50 [2] [nM]
1 | < 100 | < 300 | > 300 | COc1cccc(Nc2c(C(N)=O)cnc3c(C)cc(S(=O)(=O)c4cccc(C(=O)N5CCN(CCCCCCNC[C@H](O)c6ccc(O)c7[nH]c(=O)ccc67)CC5)c4)cc23)c1 [Example 16, (R)-6-((3-(4-(6-((2-hydroxy-2-(8-hydroxy-2-oxo-1,2-dihydroquinolin-5-yl)ethyl)amino)hexyl)piperazine-1-carbonyl)phenyl)sulfonyl)-4-((3-methoxyphenyl)amino)-8-methylquinoline-3-carboxamide] | < 100
2 | < 100 | < 100 | < 100 | COc1cccc(Nc2c(C(N)=O)cnc3c(C)cc(S(=O)(=O)c4cccc(C(=O)N5CCN(C(=O)c6cccc(CC(C)NC[C@H](O)c7ccc(O)c8[nH]c(=O)ccc78)c6)CC5)c4)cc23)c1 (stereo partly drawn) [Example 17, 6-((3-(4-(3-(2-(((R)-2-hydroxy-2-(8-hydroxy-2-oxo-1,2-dihydroquinolin-5-yl)ethyl)amino)propyl)benzoyl)piperazine-1-carbonyl)phenyl)sulfonyl)-4-((3-methoxyphenyl)amino)-8-methylquinoline-3-carboxamide] | < 100
3 | < 100 | < 100 | < 100 | COc1cccc(Nc2c(C(N)=O)cnc3c(C)cc(S(=O)(=O)c4cccc(C(=O)N5CCN(C(=O)c6cccc(CC(C)(C)NC[C@H](O)c7ccc(O)c8[nH]c(=O)ccc78)c6)CC5)c4)cc23)c1 [Example 18, (R)-6-((3-(4-(3-(2-((2-hydroxy-2-(8-hydroxy-2-oxo-1,2-dihydroquinolin-5-yl)ethyl)amino)-2-methylpropyl)benzoyl)piperazine-1-carbonyl)phenyl)sulfonyl)-4-((3-methoxyphenyl)amino)-8-methylquinoline-3-carboxamide] | < 100
4 | < 100 | < 100 | < 100 | COc1cccc(Nc2c(C(N)=O)cnc3c(C)cc(S(=O)(=O)c4cccc(CN(C)C(=O)c5cccc(CC(C)(C)NC[C@H](O)c6ccc(O)c7[nH]c(=O)ccc67)c5)c4)cc23)c1 [Example 19, (R)-6-((3-((3-(2-((2-hydroxy-2-(8-hydroxy-2-oxo-1,2-dihydroquinolin-5-yl)ethyl)amino)-2-methylpropyl)-N-methylbenzamido)methyl)phenyl)sulfonyl)-4-((3-methoxyphenyl)amino)-8-methylquinoline-3-carboxamide] | < 100
5 | < 100 | < 100 | < 100 | COc1cccc(Nc2c(C(N)=O)cnc3c(C)cc(S(=O)(=O)c4cccc(C(=O)Nc5ccc(-c6ccc(CNC[C@H](O)c7ccc(O)c8[nH]c(=O)ccc78)cc6)cc5)c4)cc23)c1 [Example 20, (R)-6-((3-((4′-(((2-hydroxy-2-(8-hydroxy-2-oxo-1,2-dihydroquinolin-5-yl)ethyl)amino)methyl)-[1,1′-biphenyl]-4-yl)carbamoyl)phenyl)sulfonyl)-4-((3-methoxyphenyl)amino)-8-methylquinoline-3-carboxamide] | < 100
6 | < 100 | < 100 | < 100 | COc1cccc(Nc2c(C(N)=O)cnc3c(C)cc(S(=O)(=O)c4cccc(C(=O)NCCCCCCNC[C@H](O)c5cc(O)cc6c5OCC(=O)N6)c4)cc23)c1 [Example 23, (R)-6-((3-((6-((2-hydroxy-2-(6-hydroxy-3-oxo-3,4-dihydro-2H-benzo[b][1,4]oxazin-8-yl)ethyl)amino)hexyl)carbamoyl)phenyl)sulfonyl)-4-((3-methoxyphenyl)amino)-8-methylquinoline-3-carboxamide] | < 100
7 | < 100 | < 100 | > 300 | COc1cccc(Nc2c(C(N)=O)cnc3c(C)cc(S(=O)(=O)c4cccc(C(=O)N(C)CCOc5ccc(CCNC[C@H](O)c6ccc(O)c7[nH]c(=O)ccc67)cc5)c4)cc23)c1 [Example 25, (R)-6-((3-((2-(4-(2-((2-hydroxy-2-(8-hydroxy-2-oxo-1,2-dihydroquinolin-5-yl)ethyl)amino)ethyl)phenoxy)ethyl)(methyl)carbamoyl)phenyl)sulfonyl)-4-((3-methoxyphenyl)amino)-8-methylquinoline-3-carboxamide] | < 100
8 | < 100 | < 100 | < 100 | COc1cccc(Nc2c(C(N)=O)cnc3c(C)cc(S(=O)(=O)c4cccc(C(=O)NCCCCCCNC[C@H](O)c5ccc(O)c(NC=O)c5)c4)cc23)c1 [Example 27, (R)-6-[[3-[[6-[[2-(3-Formamido-4-hydroxyphenyl)-2-hydroxyethyl]amino]hexyl]carbamoyl]phenyl]sulfonyl]-4-((3-methoxyphenyl)amino]-8-methylquinoline-3-carboxamide] | < 100
9 | < 100 | < 100 | > 300 | COc1cccc(Nc2c(C(N)=O)cnc3c(C)cc(S(=O)(=O)c4cccc(C(=O)N(C)CCCCCCNC[C@H](O)c5ccc(O)c(NC=O)c5)c4)cc23)c1 [Example 28, (R)-6-((3-((6-((2-(3-formamido-4-hydroxyphenyl)-2-hydroxyethyl)amino)hexyl)(methyl)carbamoyl)phenyl)sulfonyl)-4-((3-methoxyphenyl)amino)-8-methylquinoline-3-carboxamide] | < 100
10 | < 100 | < 100 | < 100 | COc1cccc(Nc2c(C(N)=O)cnc3c(C)cc(S(=O)(=O)c4cccc(C(=O)NCCCCCCNC[C@H](O)c5ccc(O)c6c5OCC(=O)N6)c4)cc23)c1 [Example 29, (R)-6-((3-((6-((2-hydroxy-2-(5-hydroxy-3-oxo-3,4-dihydro-2H-benzo[b][1,4]oxazin-8-yl)ethyl)amino)hexyl)carbamoyl)phenyl)sulfonyl)-4-((3-methoxyphenyl)amino)-8-methylquinoline-3-carboxamide] | < 100
